Patent US7470821B2, “Aldolase-inhibiting aromatic compounds” (Valorisation-Recherche, Limited Partnership, priority 2003, dated 2008)
Positions count from the first letter of the chain named. Where two headings read alike, the source gives them in different places.

Experiments:
[1] = target: T1, native aldolase from rabbit muscle (RM) (Oryctolagus cuniculus, UniProt P00883); test: Aldolase activity by coupled enzyme test (TIM/GDH), inactivation and reactivation kinetics; format: biochemical; settings: for Specific activity: RM 0.2 mg/mL
T1 construct: made in house
T1 sequence (P00883 1-364): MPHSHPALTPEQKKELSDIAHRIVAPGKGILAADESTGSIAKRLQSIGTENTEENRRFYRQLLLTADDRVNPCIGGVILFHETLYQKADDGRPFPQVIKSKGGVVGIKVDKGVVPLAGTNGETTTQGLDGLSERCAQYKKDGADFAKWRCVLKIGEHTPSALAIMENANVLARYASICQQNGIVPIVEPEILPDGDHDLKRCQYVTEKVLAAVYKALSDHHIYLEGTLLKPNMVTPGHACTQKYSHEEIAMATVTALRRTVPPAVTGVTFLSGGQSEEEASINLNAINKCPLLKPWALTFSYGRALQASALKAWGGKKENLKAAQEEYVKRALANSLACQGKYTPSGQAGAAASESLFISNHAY
Method: Aldolase activity was measured using a coupled enzyme test system: the triose-phosphate isomerase and glycerol-3-phosphate deshydrogenase (TIM/GDH) system, following oxidation of the NADH (Boehringer-Mannheim, France) at 340 nm, by means of a SAFAS spectrophotometer preheated to 25° C. Testing began with the addition of the substrate (Fru(1.6)P2; […] in final concentration), to complete an aldolase solution created in a triethanolamine buffer (TEA buffer) (100 Mm TEA/HCl; 50 mM NaCl; 1 mM EDTA, pH 7.6; ionic strength 0.15), 0.42 mM of NADH, and containing both enzyme systems (10 μg/mL of GDH and 1 μg/mL of TIM) for a final volume of 1 mL. The construction, overexpression and purification of recombinant aldolase were carried out in accordance with Morris A. J. et al., 1993 (J. Biol. Chem., 265:1095-1100) and Berthiaume L. et al., 1993 (J. Biol. Chem., 268:10826-10835).
The substrate cleavage rate was determined by measuring the decrease in absorbance/minute at 340 nm. The aldolase was dialyzed overnight at 4° C. against a TEA buffer prior to use. The protein concentration was determined by spectrophotometry, using ε280=0.91 mL.mg^−1.cm^−1 as an extinction coefficient. Subunit concentration was determined on the basis of a molecular weight of 159,000 for an aldolase tetramer. • Kinetic Method:
In the extreme situation where k−2 approaches zero, a reversible slow-binding inhibitor may resemble an irreversible one directed toward the active site. In this situation, the equation eqn.(3) is used for this type of inhibition (Meloche H. P., 1967, Biochemistry, 6:2273-2280). The semi-inactivation time of the enzyme (t1/2) is defined as a function of the mutual inhibitor concentration and is graphically represented by a straight line crossing the Y-axis at […] and crossing the X-axis at −1/Ki. • Experimental Protocol:
Native aldolase (5 μM of subunits) is incubated in the presence of FHN-P (0.05-1 mM) in TEA buffer. Enzyme activity is analyzed as a function of time using 10 μl aliquot portions.
Inactivation kinetics follow pseudo-first-order kinetics, and kinetic parameters Ki and k2 are determined by using the equation eqn.(3). To determine the reactivation rate, aldolase (25 μM of subunits in the TEA buffer) is incubated with 500 μM of FHN-P until reaching 90% inactivation. Excess inhibitor is removed by ultrafiltration with a PM-30 Millipore membrane. The enzyme-inhibitor complex is incubated in the TEA buffer (15 μM of subunits at final concentration) containing hexitol-P2 (10 mM). Aliquot portions (10 μl) are removed at different times to measure aldolase activity.
Controls involve repeating the protocol without FHN-P. The reactivation process is analyzed as if it were a first-order reaction. • Monitored by UV-Visible Differential Spectroscopy.

[2] = target: T2, K107M mutant RM aldolase (Oryctolagus cuniculus, UniProt P00883, K108M); test: UV-visible differential spectroscopy (method A) with mutated aldolase K107M; format: binding, rabbit; settings: FHN-P 300 μM
T2 construct: made in house
T2 sequence (P00883 1-364 K108M): T1 sequence (P00883 1-364) with K108M
Method: For method A, absorption spectra are recorded as a function of time, between 250 and 500 nm, or at wavelengths corresponding to maximum or minimum absorption. Measurements are begun by adding FHN-P at varying final concentrations (0.1-1 mM) in the TEA buffer containing a fixed concentration of aldolase (10 μM of subunits). Measured absorption spectra for the enzyme complex are corrected using the absorbance of the buffer, the FHN—P, and the enzyme (measured separately). The differential absorption spectra thus obtained are used to calculate the value of the constants that define the formation of the aldolase-inhibitor complex.
Every UV-visible differential test spectroscopy test using mutated aldolases (10 μM of subunits) is carried out using method A. • Monitored by Electrospray Ionization Mass Spectrometry (ESI-MS).
Residues of lysine 106, 146 and 229 residues are located at the active aldolase sites and thus are candidates for causing inactivation by forming a Schiff base with the FHN-P. In order to identify which lysine is responsible for the differential absorbances in the presence of FHN-P, sporadic mutations of these lysine residues were created and named: K107M (Research Collaboratory for Structural Bioinformatics Protein Databank), K146M (Blonski C. et al., 1997, Biochem. J. 323:71-77) and […] (Research Collaboratory for Structural Bioinformatics Protein Databank). […] UV-visible differential spectroscopy (method A) was used to examine formation of the enzyme complex for each sporadic mutation in the presence of a fixed concentration of FHN-P (300 μM).

Compound: O=Cc1c(O)ccc2cc(OP(=O)(O)O)ccc12 [FHN-P, 5-formyl-6-hydroxy-2-naphthylphosphate]
- Specific activity ([1]; FHN-P 250 μM with Fru(1,6)P2 (1 mM), 80 min incubation): 5.2 ± 0.4 Unit/mg
- Specific activity ([1]; FHN-P 250 μM with hexitol-P2, 80 min incubation): 9.9 ± 0.5 Unit/mg
- Specific activity ([1]; compound 250 μM, TEA buffer pH 7.6, 80 min incubation, RM alone 12.5 ± 0.5): 2.8 ± 0.3 Unit/mg
- Ki ([1]; dissociation constant of rapidly formed EI complex, from kapp at 0.01-1.5 mM inhibitor, eqn.(3), read-out: Ki): 250 ± 100 µM
- Ki ([1]; estimated from the values of Table 2, read-out: global dissociation constant Ki*): 0.04 ± 0.02 µM
- k2 ([1]; inactivation constant, enzyme activity kinetics): 0.07 ± 0.01 min⁻¹
- Residual specific activity [2]: 95%
- ΔA relative to 432 nm ([2]; slow phase only): 30%
- kapp ([2]; slow phase only, 431 nm): 0.0015 ± 0.0005 min⁻¹
